These results are taken from PubChem BioAssay AID608 (Sanford-Burnham Center for Chemical Genomics, 2007).

The structures appear in SMILES notation. Calls of active or inactive are those of the source. The rule behind the calls is not given here. Some results are limits rather than exact numbers.

For this test, the target named is Peptidyl-prolyl cis-trans isomerase FKBP1A (Homo sapiens) (UniProt P62942). The experiment in a line: small-molecule binding to FKBP12 – biophysical, NMR detection (AID 608). As to conditions: purified FKBP12.
Sequence of Peptidyl-prolyl cis-trans isomerase FKBP1A (Homo sapiens) (P62942 whole entry, looked up): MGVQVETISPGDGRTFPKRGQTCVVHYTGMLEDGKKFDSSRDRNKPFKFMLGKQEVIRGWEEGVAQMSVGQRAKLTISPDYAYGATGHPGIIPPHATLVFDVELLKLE
By Kd is commonly meant the concentration at which binding is half-saturated. For `CCn1cnc2cc(NCc3ccncc3)ccc21`, the Kd was > 4 mM (inactive).
The result for `C[C@@H]1O[C@@H](O[C@H]2C[C@@H](O)[C@]3(CO)C4C(CC[C@]3(O)C2)[C@@]2(O)CC[C@H](C3=CC(=O)OC3)[C@@]2(C)C[C@H]4O)[C@H](O)[C@H](O)[C@H]1O` (stereo partly drawn) reads > 4 mM (inactive).
As to `Cc1c(CO)cnn1-c1ccccc1`, the Kd is > 4 mM (inactive).
The result for `Cc1ncoc1C(=O)Nc1ccccc1C(N)=O` reads > 4 mM (inactive); that for `CSc1nc2nccc(N)n2n1`, > 4 mM (inactive); that for `O=C(NCC1CCNCC1)c1ccncc1`, > 4 mM (inactive).
For `CC(=O)Oc1ccc(-c2nc(-c3cccnc3)no2)cc1`, the Kd is > 4 mM (inactive).
In the case of `O=C(O)CCNc1n[nH]c(=O)[nH]c1=O`, the Kd is > 4 mM (inactive).
Regarding `Nc1ccc(N2CCOCC2)c(Cl)c1`, the Kd is > 4 mM (inactive).
Consider `CCC1C(=O)OCC1Cc1cncn1C` (stereo not drawn), for which the Kd is > 4 mM (inactive).
On to `O=C(c1sc2cc(F)ccc2c1Cl)N1CCOCC1`, for which the Kd result was “inactive”.
For `Cc1nc2ccccc2c(=O)n1NC(=O)Nc1ccccc1` the value was > 4 mM (inactive).
The result for `O=C1NC(=O)C2C3C=CC(O3)C12` (stereo not drawn) reads > 4 mM (inactive); that for `CC(=O)NC(=S)Nc1ccc(N(C)C(C)=O)cc1`, > 4 mM (inactive); that for `Cc1c(C(=O)O)cnn1-c1ccccc1`, > 4 mM (inactive).
Regarding `NC(=O)/C=C/C(=O)Nc1ccccc1`, the Kd was > 4 mM (inactive).
The result for `O=C1NC(=Nc2ccc(O)cc2)S/C1=C/c1ccco1` reads > 4 mM (inactive); that for `COc1ccc(N=C2NC(=O)CS2)cc1`, > 4 mM (inactive).
On to `CC1(C)C(=O)C=C[C@@]2(C)C1=C(O)C(=O)[C@]1(C)C2CC[C@@]2(C)[C@H](c3ccoc3)C[C@H]3O[C@]321` (stereo partly drawn), for which the Kd was > 4 mM (inactive).
As to `CC(=O)Oc1cc2c(C(C)=O)coc2c2ccccc12`, the Kd is > 4 mM (inactive).
For `COc1cc([C@@H]2c3cc4c(cc3C(OC3O[C@@H]5COC(C)O[C@H]5[C@H](O)[C@H]3O)C3COC(=O)[C@@H]32)OCO4)cc(OC)c1O` (stereo partly drawn) the value was > 4 mM (inactive); for `COc1ccccc1NC(=O)c1snnc1C`, > 4 mM (inactive); for `CC1=C(CCC(=O)O)c2cc3nc(cc4[nH]c(cc5[nH]c(cc1n2)c(C)c5C(C)O)c(C)c4C(C)O)C(C)=C3CCC(=O)O` (stereo not drawn), > 4 mM (inactive).
As for `C/C(=C\CO)CC[C@H](C)CCC[C@H](C)CCCC(C)C`, the Kd is > 4 mM (inactive).
Take `Cc1nc2ccc(NC(=O)N3CCOCC3)cc2s1`: the Kd is > 4 mM (inactive).
Consider `Cn1cc(Cl)c(C(=O)NC2CCCC2)n1`, for which the Kd is > 4 mM (inactive).
On to `COCC(=O)Nc1c(C(N)=O)oc2ccccc12`, for which the Kd was > 4 mM (inactive).
As to `COc1ccccc1-c1noc(-c2ccco2)n1`, the Kd was > 4 mM (inactive).
As for `O=C(O)C1CSC(c2ccc(Cl)cc2)N1` (stereo not drawn), the Kd was > 4 mM (inactive).
`COc1ccccc1/C=C/CN1CCOCC1`: the Kd was > 4 mM (inactive).
With `CC1=C(C(N)=O)C(c2ccccc2)NC(=O)N1` (stereo not drawn), the Kd is > 4 mM (inactive).
For `CC(C)[C@@H]1CC[C@@H](C)C[C@H]1O` the value was > 4 mM (inactive); for `O=C1NC(=O)C(C(C[N+](=O)[O-])c2ccc(O)cc2)C(=O)N1` (stereo not drawn), > 4 mM (inactive).
In the case of `CC(=O)O[C@@H]1CC2C(C)(C)[C@H](O)C=C[C@]2(C)C2CC[C@]3(C)C(=CC(=O)O[C@H]3c3ccoc3)[C@@]21C` (stereo partly drawn), the Kd was > 4 mM (inactive).
Consider `Clc1ccccc1OCc1nc(-c2ccncc2)no1`, for which the Kd was > 4 mM (inactive).
For `NN1C(=O)/C(=C/c2ccc(O)c(O)c2)SC1=S` the value was > 4 mM (inactive); for `CCOC(=O)C1C(=O)C2CCN1CC2` (stereo not drawn), > 4 mM (inactive); for `c1ccc2c(c1)nnn2C1CCNCC1`, > 4 mM (inactive).
For `Cc1c(C)c2c(c(C)c1O)CCC(C)(CCCC(C)CCCC(C)CCCC(C)C)O2` (stereo not drawn) the value was > 4 mM (inactive); for `Cc1csc2nc(N)nn12`, > 4 mM (inactive); for `S=c1oc(-c2ccncc2)nn1CCc1ccncc1`, “inactive”.
For `Cc1cc(SCCF)n2ncnc2n1` the value was > 4 mM (inactive); for `CC(C)c1ccccc1NC(=O)c1cnccn1`, > 4 mM (inactive); for `COc1cc(/C=C2\SC(=S)NC2=O)ccc1O`, > 4 mM (inactive).
With `Cc1ccccc1NC(=O)C1CC(=O)N=C(N)S1` (stereo not drawn), the Kd was > 4 mM (inactive).
Regarding `O=C1NC(=O)C(=Cc2cccs2)C(=O)N1`, the Kd was > 4 mM (inactive).
For `Cc1ccc(C)n1NC(=O)c1cccs1` the value was > 4 mM (inactive); for `COc1c2occc2cc2ccc(=O)oc12`, > 4 mM (inactive); for `NC(=O)CSc1nc2ccccc2c(=O)[nH]1`, > 4 mM (inactive).
Consider `CC1=C2C(O)C(=O)OC3CC4C(C)(C)C(=O)C=C[C@]4(C)C(CC1)[C@]23C` (stereo partly drawn), for which the Kd was > 4 mM (inactive).
Turning to `NC(=O)Cc1nc(-c2ccccc2)cs1`, the Kd was > 4 mM (inactive).
In the case of `O=C1C2CCCCC2C(=O)N1c1ccc(O)cc1` (stereo not drawn), the Kd is > 4 mM (inactive).
For `O=c1c(-c2ccco2)[n+]([O-])c2ccccc2n1O`, the Kd was > 4 mM (inactive).
On to `COc1ccc(-c2cc(=O)c3c(O)c(OC)c(O[C@H]4O[C@H](CO[C@@H]5O[C@@H](C)[C@H](O)[C@@H](O)[C@H]5O)[C@@H](O)[C@H](O)[C@H]4O)cc3o2)cc1`, for which the Kd is > 4 mM (inactive).
Consider `NC1=NN(c2ccccc2)C(=O)C1`, for which the Kd was > 4 mM (inactive).
For `NCc1ccc(-n2cccn2)cc1`, the Kd is > 4 mM (inactive).
Take `O=C(CN1CCOCC1)Nc1nccs1`: the Kd is > 4 mM (inactive).
Consider `C=CC(C1=CC(=O)C(OC)=CC1=O)c1ccccc1` (stereo not drawn), for which the Kd is > 4 mM (inactive).
The result for `COc1ccc(S(=O)(=O)NCCO)cc1` reads > 4 mM (inactive); that for `O[C@H]1C=C2CCN3Cc4cc5c(cc4C(C23)[C@@H]1O)OCO5` (stereo partly drawn), > 4 mM (inactive); that for `CN1CCN(C2CCSC2)CC1` (stereo not drawn), > 4 mM (inactive).
`CCOC(=O)Cc1nc2ccccc2[nH]1`: the Kd is > 4 mM (inactive).
For `CN1CCN(C(=O)C2CCCNC2)CC1` (stereo not drawn) the value was > 4 mM (inactive).
For the compound `C/C=C(/C)C(=O)O[C@H]1CC[C@@]2(C)[C@@H]3CC[C@H]4[C@]5(O)C[C@H](O)[C@@]6(O)[C@@H](CN7C[C@@H](C)CC[C@H]7[C@@]6(C)O)[C@]5(O)C[C@@]42OC13O`, the Kd is > 4 mM (inactive).
The result for `CC12CCCC(O)(C1)C1CC(C)(C)C1CC2` (stereo not drawn) reads > 4 mM (inactive); that for `CSc1ccccc1NC(=O)c1ccc(C)o1`, > 4 mM (inactive).
In the case of `NC(=O)NC1C=CS(=O)(=O)C1` (stereo not drawn), the Kd was > 4 mM (inactive).
For `COc1ccc(CC(=O)c2ccc(O)cc2O)cc1`, the Kd is > 4 mM (inactive).
Consider `COc1cc(-c2nnc(NC(C)=O)o2)cc(OC)c1OC`, for which the Kd is > 4 mM (inactive).
`CCCn1cnn2c(=O)cc(C)nc12`: the Kd is > 4 mM (inactive).
Regarding `CC1=CCCC2C1(C)CCC(C)C2(C)CC/C(C)=C/C[n+]1cn(C)c2c(N)ncnc21` (stereo not drawn), the Kd was > 4 mM (inactive).
For `CS(=O)(=O)N1CCN(C(=O)c2ccccc2F)CC1` the value was > 4 mM (inactive); for `Cc1ccc2cc(C(=O)O)ccc2n1`, > 4 mM (inactive).
The result for `COc1ccc(O)c(-c2cn[nH]c2-c2cccs2)c1` reads > 4 mM (inactive); that for `CC(=O)N(C)Cc1nc2ccccc2n1C`, > 4 mM (inactive); that for `O=C(O)CSc1nnc(-c2cccs2)o1`, > 4 mM (inactive).
On to `CC1=CCc2c(cc3oc(C)cc(=O)c3c2O)OC1`, for which the Kd was > 4 mM (inactive).
The result for `O=C(Nc1ccon1)c1csc2ccccc12` reads > 4 mM (inactive); that for `NC(=O)c1cc(N)ccc1N1CCCCC1`, > 4 mM (inactive).
The result for `CC(CCC(=O)O)[C@H]1CCC2C3CC[C@@H]4C[C@H](O)CC[C@]4(C)C3C[C@H](O)[C@@]21C` (stereo partly drawn) reads > 4 mM (inactive); that for `Cc1cc2nc(SCC(=O)O)nc(C)c2cc1C`, > 4 mM (inactive).
The result for `CNC(=S)Nc1ccc2c(c1)OCO2` reads > 4 mM (inactive); that for `O=C1CC(=O)N2N=C(c3ccccc3)SC2=N1`, > 4 mM (inactive).
As to `Cc1nnc(SCC(=O)NC2CCCC2)[nH]c1=O`, the Kd was > 4 mM (inactive).
For `Cc1noc(C)c1C(=O)N1CCc2ccccc2C1` the value was > 4 mM (inactive).
Turning to `Cn1c(CNc2ccccc2)cc(=O)n(C)c1=O`, the Kd was > 4 mM (inactive).
Consider `COC(=O)[C@@H]1OC(=O)C2OC23[C@@]1(C)CCC1[C@@]2(C)CCC(=O)C(C)(C)C2C[C@@H](OC(C)=O)[C@]13C` (stereo partly drawn), for which the Kd is > 4 mM (inactive).
As to `c1n[nH]cc1-c1cn[nH]c1`, the Kd was > 4 mM (inactive).
Turning to `CC1(C)Cc2cccc(C(=O)O)c2O1`, the Kd was > 4 mM (inactive).
For `O=C(CSc1ncccn1)Nc1nccs1` the value was > 4 mM (inactive); for `O=C1C2CC=CCC2C(=O)N1c1ccccc1` (stereo not drawn), 0.0261 mM.
Turning to `O=C(O[C@@H]1Cc2c(O)cc(O)cc2O[C@@H]1c1ccc(O)c(O)c1)c1cc(O)c(O)c(O)c1`, the Kd is > 4 mM (inactive).
For `Cc1cc(O)c2c(c1O)C(=O)c1c(O)cc(C)c(O)c1C2=O` the value was > 4 mM (inactive).
Regarding `Nc1ncnc2c1ncn2CCN1CCCCC1`, the Kd was > 4 mM (inactive).
With `COC(=O)c1ccc(N2CCCC2)nc1`, the Kd was > 4 mM (inactive).
As to `CCC(CCC(C)[C@H]1CCC2C3CC=C4C[C@@H](O)CC[C@]4(C)C3CC[C@@]21C)C(C)C` (stereo partly drawn), the Kd is > 4 mM (inactive).
Turning to `CCOC(=O)C1=C(O)CCN(C)C1`, the Kd was > 4 mM (inactive).
In the case of `OC1CCCN(Cc2ccccc2)C1` (stereo not drawn), the Kd is > 4 mM (inactive).
